# Paper PMC10786919, “Design-rules for stapled peptides with in vivo activity and their application to Mdm2/X antagonists” (Nature Communications, 2024)
# Positions of bridges follow the written chain, without caps; N, C: chain ends. Non-standard residues stand in square brackets, D forms with d. Residues, ends and D or L forms follow the SMILES beside them. Lys(N3) = [N-]=[N+]=NCCCC[C@H](N)C(=O)O; R8 = C=CCCCCCC[C@@](C)(N)C(=O)O; Cba = N[C@@H](CC1CCC1)C(=O)O; S5 = C=CCCC[C@](C)(N)C(=O)O; βAla = NCCC(=O)O
# How the values were obtained:
# in vitro = settings: Nanoclick permeability assay EC50
# How it was run: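 Azido-peptide permeability was read as loss of NanoBRET signal (donor 450 nm, acceptor 610 nm) after adding NanoBret618-azide at 10 μM final.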
# [1] = Lactate dehydrogenase (LDH) release assay; type: cell-based; settings: LDH: Cytotoxicity assay EC50
# How it was run: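 Membrane damage measured as lactate dehydrogenase release (CytoTox-ONE kit) from p53-responsive β-lactamase reporter HCT116 cells plated at 8000 per well. Final DMSO 0.5%; geometric mean reported from a minimum of three biological replicates.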
# [2] = Solubility assay (kinetic solubility, PBS pH 7); type: physicochemical; settings: pH 7, PBS; for solubility kinetic: pH 7, aqueous buffer, kinetic from dmso stock, read-out: Solubility
# How it was run: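 Std: 10 mM stock → 100 µM in ACN/MeOH/DMSO (10:80:10). Sol. [µM] = (sample peak area / std peak area) × std conc.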
# [3] = Experimental LogD (partition coefficient); settings: for logD: not stated, Partition Coeff LogD
Compound,cell entry EC50 (in vitro),EC50 [1],EPSA (physchem),solubility kinetic [2],logD [3],Solubility [2],Partition Coeff LogD [3]
CC(=O)N[C@@H](CCCCN=[N+]=[N-])C(=O)NCCC(=O)N[C@@H](CC(C)C)C(=O)N(C)[C@H](C(=O)N[C@@H](Cc1ccccc1)C(=O)N[C@]1(C)CCCCCCC=CCCC[C@@](C)(C(=O)N[C@@H](CO)C(=O)N[C@@H](C)C(=O)N[C@@H](C)C(N)=O)NC(=O)[C@H](CC2CCC2)NC(=O)[C@H](CCC(N)=O)NC(=O)[C@H](C)NC(=O)[C@H](Cc2c[nH]c3ccccc23)NC(=O)[C@H](Cc2ccc(O)cc2)NC(=O)[C@H](CCC(=O)O)NC1=O)[C@@H](C)O [MP-190],420 nM,> 50000 nM,219 A^2,116 µM,2.73,–,–
CC(=O)N[C@@H](CCCCN=[N+]=[N-])C(=O)NCCC(=O)N[C@@H](CCCNC(=N)N)C(=O)N[C@H](C(=O)N[C@@H](Cc1ccccc1)C(=O)N[C@]1(C)CCCCCCC=CCCC[C@@](C)(C(=O)N[C@@H](CCCCN)C(=O)N[C@@H](C)C(=O)N[C@@H](C)C(N)=O)NC(=O)[C@H](CC2CCC2)NC(=O)[C@H](CCCNC(=N)N)NC(=O)[C@H](C)NC(=O)[C@H](Cc2c[nH]c3ccccc23)NC(=O)[C@H](Cc2ccc(O)cc2)NC(=O)[C@H](CCC(=O)O)NC1=O)[C@@H](C)O [MP-537] (Ac-[Lys(N3)][βAla]RTF[R8]EYWAR[Cba][S5]KAA-NH2; staple 6-13),87.9 nM,7290 nM,224 A^2,140 µM,2.48,–,–
CC(=O)N[C@@H](CCCCN=[N+]=[N-])C(=O)NCCC(=O)N[C@@H](CCCNC(=N)N)C(=O)N[C@H](C(=O)N[C@@H](Cc1ccccc1)C(=O)N[C@]1(C)CCCCCCC=CCCC[C@@](C)(C(=O)N[C@@H](CO)C(=O)N[C@@H](C)C(=O)N[C@@H](C)C(N)=O)NC(=O)[C@H](CC2CCC2)NC(=O)[C@H](CCCNC(=N)N)NC(=O)[C@H](C)NC(=O)[C@H](Cc2c[nH]c3ccccc23)NC(=O)[C@H](Cc2ccccc2)NC(=O)[C@H](CCC(=O)O)NC1=O)[C@@H](C)O [MP-538] (Ac-[Lys(N3)][βAla]RTF[R8]EFWAR[Cba][S5]SAA-NH2; staple 6-13),230 nM,6780 nM,223 A^2,5 µM,3.16,–,–
CC(=O)N[C@@H](CCCCN=[N+]=[N-])C(=O)NCCC(=O)N[C@@H](CCCNC(=N)N)C(=O)N[C@H](C(=O)N[C@@H](Cc1ccccc1)C(=O)N[C@]1(C)CCCCCCC=CCCC[C@@](C)(C(=O)N[C@@H](CO)C(=O)N[C@@H](CCCNC(=N)N)C(=O)N[C@@H](C)C(N)=O)NC(=O)[C@H](CC2CCC2)NC(=O)[C@H](CCC(N)=O)NC(=O)[C@H](CCCNC(=N)N)NC(=O)[C@H](Cc2c[nH]c3ccccc23)NC(=O)[C@H](Cc2ccc(O)cc2)NC(=O)[C@H](CCC(=O)O)NC1=O)[C@@H](C)O [MP-539] (Ac-[Lys(N3)][βAla]RTF[R8]EYWRQ[Cba][S5]SRA-NH2; staple 6-13),293 nM,13400 nM,222 A^2,97.5 µM,2.4,–,–
CC(=O)N[C@@H](CCCCN=[N+]=[N-])C(=O)NCCC(=O)N[C@@H](Cc1ccc(O)cc1)C(=O)N[C@H](C(=O)N[C@@H](Cc1ccccc1)C(=O)N[C@]1(C)CCCCCCC=CCCC[C@@](C)(C(=O)N[C@@H](CO)C(=O)N[C@@H](C)C(=O)N[C@@H](C)C(N)=O)NC(=O)[C@H](CC2CCC2)NC(=O)[C@H](Cc2c[nH]c3ccccc23)NC(=O)[C@H](C)NC(=O)[C@H](Cc2c[nH]c3ccccc23)NC(=O)[C@H](Cc2ccc(O)cc2)NC(=O)[C@H](Cc2c[nH]c3ccccc23)NC1=O)[C@@H](C)O [MP-540] (Ac-[Lys(N3)][βAla]YTF[R8]WYWAW[Cba][S5]SAA-NH2; staple 6-13),94.2 nM,> 50600 nM,253 A^2,2 µM,3.67,–,–
CC(=O)N[C@@H](CCCCN=[N+]=[N-])C(=O)NCCC(=O)N[C@@H](CCCNC(=N)N)C(=O)N[C@H](C(=O)N[C@@H](Cc1ccccc1)C(=O)N[C@]1(C)CCCCCCC=CCCC[C@@](C)(C(=O)N[C@@H](CO)C(=O)N[C@@H](C)C(=O)N[C@@H](CC(C)C)C(N)=O)NC(=O)[C@H](CC2CCC2)NC(=O)[C@H](CCC(N)=O)NC(=O)[C@H](CC(C)C)NC(=O)[C@H](Cc2c[nH]c3ccccc23)NC(=O)[C@H](Cc2ccc(O)cc2)NC(=O)[C@H](CCC(=O)O)NC1=O)[C@@H](C)O [MP-541] (Ac-[Lys(N3)][βAla]RTF[R8]EYWLQ[Cba][S5]SAL-NH2; staple 6-13),210 nM,> 50600 nM,224 A^2,4 µM,3.58,–,–
CC(=O)N[C@@H](CCCCN=[N+]=[N-])C(=O)NCCC(=O)N[C@@H](CC(C)C)C(=O)N[C@H](C(=O)N[C@@H](Cc1ccccc1)C(=O)N[C@]1(C)CCCCCCC=CCCC[C@@](C)(C(=O)N[C@@H](CO)C(=O)N[C@@H](Cc2ccccc2)C(=O)N[C@@H](Cc2ccccc2)C(N)=O)NC(=O)[C@H](CC2CCC2)NC(=O)[C@H](CCC(N)=O)NC(=O)[C@H](C)NC(=O)[C@H](Cc2c[nH]c3ccccc23)NC(=O)[C@H](Cc2ccc(O)cc2)NC(=O)[C@H](Cc2c[nH]c3ccccc23)NC1=O)[C@@H](C)O [MP-542] (Ac-[Lys(N3)][βAla]LTF[R8]WYWAQ[Cba][S5]SFF-NH2; staple 6-13),93.2 nM,> 50600 nM,242 A^2,–,4.46,Poorly Behaved,–
CSCC[C@H](NC(=O)[C@H](CO)NC(=O)[C@]1(C)CCCC=CCCCCCC[C@@](C)(NC(=O)[C@H](Cc2ccccc2)NC(=O)[C@H](Cc2ccc(O)cc2)NC(=O)[C@H](CC(C)C)NC(=O)CCNC(=O)[C@H](CCCCN=[N+]=[N-])NC(C)=O)C(=O)N[C@@H](CCC(=O)O)C(=O)N[C@@H](Cc2ccc(O)cc2)C(=O)N[C@@H](Cc2c[nH]c3ccccc23)C(=O)N[C@@H](C)C(=O)N[C@@H](CCC(N)=O)C(=O)N[C@@H](CC2CCC2)C(=O)N1)C(=O)N[C@@H](CC(C)C)C(N)=O [MP-543] (Ac-[Lys(N3)][βAla]LYF[R8]EYWAQ[Cba][S5]SML-NH2; staple 6-13),139 nM,> 50600 nM,234 A^2,30.5 µM,3.56,–,–
CC(=O)N[C@@H](CCCCN=[N+]=[N-])C(=O)NCCC(=O)N[C@@H](CC(C)C)C(=O)N[C@H](C(=O)N[C@@H](Cc1ccccc1)C(=O)N[C@]1(C)CCCCCCC=CCCC[C@@](C)(C(=O)N[C@@H](CO)C(=O)N[C@@H](C)C(=O)N[C@@H](CC(C)C)C(N)=O)NC(=O)[C@H](CC2CCC2)NC(=O)[C@H](CCC(N)=O)NC(=O)[C@H](C)NC(=O)[C@H](Cc2c[nH]c3ccccc23)NC(=O)[C@H](Cc2c[nH]c3ccccc23)NC(=O)[C@H](Cc2c[nH]c3ccccc23)NC1=O)[C@@H](C)O [MP-544] (Ac-[Lys(N3)][βAla]LTF[R8]WWWAQ[Cba][S5]SAL-NH2; staple 6-13),124 nM,> 50600 nM,227 A^2,–,–,Poorly Behaved,Poorly Behaved
CC(=O)N[C@@H](CCCCN=[N+]=[N-])C(=O)NCCC(=O)N[C@@H](CC(C)C)C(=O)N[C@H](C(=O)N[C@@H](Cc1ccccc1)C(=O)N[C@]1(C)CCCCCCC=CCCC[C@@](C)(C(=O)N[C@@H](CO)C(=O)N[C@@H](Cc2ccccc2)C(=O)N[C@@H](Cc2ccccc2)C(N)=O)NC(=O)[C@H](CC2CCC2)NC(=O)[C@H](CCC(N)=O)NC(=O)[C@H](CO)NC(=O)[C@H](Cc2c[nH]c3ccccc23)NC(=O)[C@H](Cc2ccc(O)cc2)NC(=O)[C@H](CCC(=O)O)NC1=O)[C@@H](C)O [MP-545] (Ac-[Lys(N3)][βAla]LTF[R8]EYWSQ[Cba][S5]SFF-NH2; staple 6-13),137 nM,> 50600 nM,241 A^2,–,–,Poorly Behaved,Poorly Behaved
CC(=O)N[C@@H](CCCCN=[N+]=[N-])C(=O)NCCC(=O)N[C@@H](CC(C)C)C(=O)N[C@@H](Cc1c[nH]c2ccccc12)C(=O)N[C@@H](Cc1ccccc1)C(=O)N[C@]1(C)CCCCCCC=CCCC[C@@](C)(C(=O)N[C@@H](CO)C(=O)N[C@@H](C)C(=O)N[C@@H](C)C(N)=O)NC(=O)[C@H](CC2CCC2)NC(=O)[C@H](CCC(N)=O)NC(=O)[C@H](C)NC(=O)[C@H](Cc2c[nH]c3ccccc23)NC(=O)[C@H](Cc2ccc(O)cc2)NC(=O)[C@H](CCC(=O)O)NC1=O [MP-1184] (Ac-[Lys(N3)][βAla]LWF[R8]EYWAQ[Cba][S5]SAA-NH2; staple 6-13),360 nM,> 50000 nM,239 A^2,28.5 µM,3.21,–,–
CC(=O)N[C@@H](CCCCN=[N+]=[N-])C(=O)NCCC(=O)N[C@@H](CCCNC(=N)N)C(=O)N[C@@H](Cc1ccc(O)cc1)C(=O)N[C@@H](Cc1ccccc1)C(=O)N[C@]1(C)CCCCCCC=CCCC[C@@](C)(C(=O)N[C@@H](CO)C(=O)N[C@@H](C)C(=O)N[C@@H](Cc2ccccc2)C(N)=O)NC(=O)[C@H](CC2CCC2)NC(=O)[C@H](CCC(N)=O)NC(=O)[C@H](C)NC(=O)[C@H](Cc2c[nH]c3ccccc23)NC(=O)[C@H](Cc2ccc(O)cc2)NC(=O)[C@H](CCC(=O)O)NC1=O [MP-5546] (Ac-[Lys(N3)][βAla]RYF[R8]EYWAQ[Cba][S5]SAF-NH2; staple 6-13),511 nM,> 50600 nM,256 A^2,2 µM,3.2,–,–
